The values below come from US11490622B2, “Substituted heterocycles as harmful arthropod controlling agents” (SUMITOMO CHEMICAL COMPANY, LIMITED, priority 2017, dated 2022).

The term mortality denotes the share of the test organisms that died.

Test [1] relates to tobacco cutworms (Spodoptera litura). In words: Test method 3: sprayed cabbage seedling, tobacco cutworm larvae. Format: in vivo. As to conditions: 120 h, sprayed 20 mL/seedling on cabbage, second instar larvae, after 5 days, 25° C., read-out: mortality of insects. As for the experimental part: Test compounds are made to a formulation according to a similar method to that described in the Formulation example 5, and thereto is added water containing 0.03 v/v % of Shindain (registered trademark) to prepare a diluted solution containing a prescribed concentration of the test compound.
Cabbage (Brassicae oleracea) seedling (on the developmental stage of the second to third true leaf) is planted in a cup, and the diluted solutions are sprayed into the seedling at a ratio of 20 mL/seedling. Thereafter, the stem and leaf thereof is cut out and then is installed into a cup that is covered with filter paper on the bed of the cup. Five (5) tobacco cutworms (Spodoptera litura) at the second instar larval stage are released into the cup. After 5 days, the number of the surviving insects is counted, and the mortality of insects is calculated by the following equation. Mortality (%)=(1−Number of surviving insects/5)×100
Present compound Nos: 1, 3, 4, 6 to 12, 23, 25 to 30, 32, 35 to 43, 47 to 49, 92, 93, 97, and 107

Test [2] concerns Western corn rootworms (Diabrotica virgifera virgifera). Put plainly: Test method 5: corn seedling immersed in diluted solution, Western corn rootworm larvae. The test is classed as in vivo. As to conditions: 120 h, corn seedling immersed 30 seconds, second instar larvae, after 5 days, 25° C., read-out: mortality of insects. As for the experimental part: Each 1 mg of the test compounds is dissolved into 50 μL of a mixed solution of polyoxyethylene sorbitan mono-cocoate and acetone (polyoxyethylene sorbitan mono-cocoate:acetone=5:95 (v/v ratio)). Thereto is added water containing 0.03% by volume of Shindain (registered trademark) to prepare a diluted solution containing a prescribed concentration of the test compound.
A young entire seedling of Corns (Zea mays) is immersed into the diluted solution for 30 seconds. Thereafter, each two grains of the seedlings are installed in a plastic petri dish ([…]), and 10 Western corn rootworms (Diabrotica virgifera virgifera) at the second instar larval stage are released into the dish. After 5 days, the number of the dead insects is counted, and the mortality of insects is calculated by the following equation. Mortality (%)={Number of dead insects/10}×100
Present compound Nos: 1, 4, 7, 9 to 13, 23, 24, 26 to 29, 32, 33, 35, 38, 39, 41, 43, 44, 47, 48, 59, 60, 62, 63, 67 to 70, 73 to 83, and 96

Each structure is given as a SMILES string. Bounds are passed on as bounds.

Turning to `CCSc1c(-c2ccc(OCC(F)(F)C(F)(F)F)n(C)c2=O)nc2ccc(C(F)(F)F)cn12` [compound 1], the mortality at 500 ppm in test [1] and in test [2] was at least 80% each time.
